From PubChem BioAssay AID1919013 (Molecular Pharmacology Branch, DTP, NCI, 2023)
One block for each compound: values may come before it.

Tested on: LG0703-F498-PDC complex spheroid growth
Experiment: Anticancer human tumor LG0703-F498-PDC patient-derived lung adenocarcinoma cell line growth inhibition [AhR]
Conditions: for IC50: curve of first compound; for viability, T/C: stronger effect = lower value
Method in brief: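 Complex tumor spheroids co-cultured with HUVEC and human MSC stroma; AhR antagonists tested in combination with standard-of-care and investigational agents. Top concentration at or near clinical Cmax (else 10 microM), half-log dilutions; growth expressed as percent test/control.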

[1] = second compound 0.1 µM, first compound 0.0316 µM
[2] = second compound 0.1 µM, first compound 0.1 µM
[3] = second compound 0.1 µM, first compound 0.316 µM
[4] = second compound 0.1 µM, first compound 1 µM
[5] = second compound 0.1 µM, first compound 3.16 µM
[6] = second compound 0.1 µM, first compound 10 µM
[7] = second compound 0.316 µM, first compound 0.0316 µM
[8] = second compound 0.316 µM, first compound 0.1 µM
[9] = second compound 0.316 µM, first compound 0.316 µM
[10] = second compound 0.316 µM, first compound 1 µM
[11] = second compound 0.316 µM, first compound 3.16 µM
[12] = second compound 0.316 µM, first compound 10 µM
[13] = second compound 1 µM, first compound 0.0316 µM
[14] = second compound 1 µM, first compound 0.1 µM
[15] = second compound 1 µM, first compound 0.316 µM
[16] = second compound 1 µM, first compound 1 µM
[17] = second compound 1 µM, first compound 3.16 µM
[18] = second compound 1 µM, first compound 10 µM
[19] = second compound 3.16 µM, first compound 0.0316 µM
[20] = second compound 3.16 µM, first compound 0.1 µM
[21] = second compound 3.16 µM, first compound 0.316 µM
[22] = second compound 3.16 µM, first compound 1 µM
[23] = second compound 3.16 µM, first compound 3.16 µM
[24] = second compound 3.16 µM, first compound 10 µM
[25] = second compound 10 µM, first compound 0.0316 µM
[26] = second compound 10 µM, first compound 0.1 µM
[27] = second compound 10 µM, first compound 0.316 µM
[28] = second compound 10 µM, first compound 1 µM
[29] = second compound 10 µM, first compound 3.16 µM
[30] = second compound 10 µM, first compound 10 µM
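Note: luminescence taken as a proxy for viable cell amount.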
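Throughout, for viability, T/C: percent of DMSO vehicle control where 100% means growth equal to vehicle.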

- IC50 (second compound 0.1 µM): > 10000 nM
- IC50 (second compound 0.316 µM): > 10000 nM
- IC50 (second compound 1 µM): > 10000 nM
- IC50 (second compound 3.16 µM): > 10000 nM
- IC50 (second compound 10 µM): > 10000 nM
SMILES: CC(C)c1c(-c2ccccc2)nc2c(C#N)c[nH]n2c1=O + Cc1ccccc1N=Nc1ccc(NC(=O)c2ccnn2C)c(C)c1
- viability, T/C [1]: 95.3%
- viability, T/C [2]: 88.1%
- viability, T/C [3]: 94.9%
- viability, T/C [4]: 98.5%
- viability, T/C [5]: 112%
- viability, T/C [6]: 102%
- viability, T/C [7]: 97.4%
- viability, T/C [8]: 85.6%
- viability, T/C [9]: 85.5%
- viability, T/C [10]: 78.8%
- viability, T/C [11]: 95.9%
- viability, T/C [12]: 92.1%
- viability, T/C [13]: 88.1%
- viability, T/C [14]: 90.4%
- viability, T/C [15]: 94.7%
- viability, T/C [16]: 89.5%
- viability, T/C [17]: 87.6%
- viability, T/C [18]: 84.1%
- viability, T/C [19]: 78%
- viability, T/C [20]: 79%
- viability, T/C [21]: 84.5%
- viability, T/C [22]: 77.6%
- viability, T/C [23]: 81.5%
- viability, T/C [24]: 86.8%
- viability, T/C [25]: 86.3%
- viability, T/C [26]: 75.6%
- viability, T/C [27]: 67.9%
- viability, T/C [28]: 82.8%
- viability, T/C [29]: 81.7%
- viability, T/C [30]: 79.3%

- IC50 (second compound 0.1 µM): 514 nM
- IC50 (second compound 0.316 µM): 678 nM
- IC50 (second compound 1 µM): 306 nM
- IC50 (second compound 3.16 µM): 406 nM
- IC50 (second compound 10 µM): 592 nM
SMILES: CC1COCCN1c1cc(-c2ccnn2C)c2ccnc(-c3ccn[nH]3)c2n1 (stereo not given) + Cc1ccccc1N=Nc1ccc(NC(=O)c2ccnn2C)c(C)c1
- viability, T/C (second compound 0.1 µM, first compound 0.00316 µM): 88.3%
- viability, T/C (second compound 0.1 µM, first compound 0.01 µM): 88.5%
- viability, T/C [1]: 82.4%
- viability, T/C [2]: 72%
- viability, T/C [3]: 56.3%
- viability, T/C [4]: 41.5%
- viability, T/C (second compound 0.316 µM, first compound 0.00316 µM): 98%
- viability, T/C (second compound 0.316 µM, first compound 0.01 µM): 110%
- viability, T/C [7]: 90.6%
- viability, T/C [8]: 73.1%
- viability, T/C [9]: 58.4%
- viability, T/C [10]: 45.6%
- viability, T/C (second compound 1 µM, first compound 0.00316 µM): 94.4%
- viability, T/C (second compound 1 µM, first compound 0.01 µM): 79.8%
- viability, T/C [13]: 91.6%
- viability, T/C [14]: 73.6%
- viability, T/C [15]: 50%
- viability, T/C [16]: 38.4%
- viability, T/C (second compound 3.16 µM, first compound 0.00316 µM): 92.8%
- viability, T/C (second compound 3.16 µM, first compound 0.01 µM): 79.7%
- viability, T/C [19]: 69.7%
- viability, T/C [20]: 78%
- viability, T/C [21]: 49.3%
- viability, T/C [22]: 37%
- viability, T/C (second compound 10 µM, first compound 0.00316 µM): 86.6%
- viability, T/C (second compound 10 µM, first compound 0.01 µM): 81.7%
- viability, T/C [25]: 97.2%
- viability, T/C [26]: 72.9%
- viability, T/C [27]: 59.8%
- viability, T/C [28]: 42.8%

- IC50 (second compound 0.1 µM): 4590 nM
- IC50 (second compound 0.316 µM): 2870 nM
- IC50 (second compound 1 µM): 3920 nM
- IC50 (second compound 3.16 µM): 2550 nM
- IC50 (second compound 10 µM): 1900 nM
SMILES: COc1ccc([C@@H](O)c2cc(-c3ncnc4cc(N5CCOCC5)ccc34)c(F)cc2Cl)nn1 + Cc1ccccc1N=Nc1ccc(NC(=O)c2ccnn2C)c(C)c1
- viability, T/C [1]: 93.9%
- viability, T/C [2]: 93.8%
- viability, T/C [3]: 88.3%
- viability, T/C [4]: 75.7%
- viability, T/C [5]: 61.2%
- viability, T/C [6]: 29%
- viability, T/C [7]: 83.3%
- viability, T/C [8]: 101%
- viability, T/C [9]: 91.1%
- viability, T/C [10]: 75%
- viability, T/C [11]: 48.5%
- viability, T/C [12]: 28.1%
- viability, T/C [13]: 87.3%
- viability, T/C [14]: 99.2%
- viability, T/C [15]: 86%
- viability, T/C [16]: 79%
- viability, T/C [17]: 55%
- viability, T/C [18]: 28.5%
- viability, T/C [19]: 89.8%
- viability, T/C [20]: 83.9%
- viability, T/C [21]: 78%
- viability, T/C [22]: 68.1%
- viability, T/C [23]: 45.2%
- viability, T/C [24]: 23.8%
- viability, T/C [25]: 75.5%
- viability, T/C [26]: 93.6%
- viability, T/C [27]: 80.8%
- viability, T/C [28]: 57.9%
- viability, T/C [29]: 42.5%
- viability, T/C [30]: 15.6%

- IC50 (second compound 0.1 µM): 76.8 nM
- IC50 (second compound 0.316 µM): 70.8 nM
- IC50 (second compound 1 µM): 132 nM
- IC50 (second compound 3.16 µM): 85.7 nM
- IC50 (second compound 10 µM): 119 nM
SMILES: O=C(C=Cn1cnc(-c2cc(C(F)(F)F)cc(C(F)(F)F)c2)n1)NNc1cnccn1 + Cc1ccccc1N=Nc1ccc(NC(=O)c2ccnn2C)c(C)c1
- viability, T/C (second compound 0.1 µM, first compound 0.00949 µM): 76.4%
- viability, T/C (second compound 0.1 µM, first compound 0.03 µM): 73%
- viability, T/C (second compound 0.1 µM, first compound 0.0949 µM): 44.9%
- viability, T/C (second compound 0.1 µM, first compound 0.3 µM): 37.3%
- viability, T/C (second compound 0.1 µM, first compound 0.949 µM): 43.8%
- viability, T/C (second compound 0.1 µM, first compound 3 µM): 39.3%
- viability, T/C (second compound 0.316 µM, first compound 0.00949 µM): 85.4%
- viability, T/C (second compound 0.316 µM, first compound 0.03 µM): 64.2%
- viability, T/C (second compound 0.316 µM, first compound 0.0949 µM): 45.5%
- viability, T/C (second compound 0.316 µM, first compound 0.3 µM): 39.7%
- viability, T/C (second compound 0.316 µM, first compound 0.949 µM): 46.6%
- viability, T/C (second compound 0.316 µM, first compound 3 µM): 39.4%
- viability, T/C (second compound 1 µM, first compound 0.00949 µM): 83%
- viability, T/C (second compound 1 µM, first compound 0.03 µM): 72%
- viability, T/C (second compound 1 µM, first compound 0.0949 µM): 54%
- viability, T/C (second compound 1 µM, first compound 0.3 µM): 39.8%
- viability, T/C (second compound 1 µM, first compound 0.949 µM): 40%
- viability, T/C (second compound 1 µM, first compound 3 µM): 34.8%
- viability, T/C (second compound 3.16 µM, first compound 0.00949 µM): 71.1%
- viability, T/C (second compound 3.16 µM, first compound 0.03 µM): 63.6%
- viability, T/C (second compound 3.16 µM, first compound 0.0949 µM): 47%
- viability, T/C (second compound 3.16 µM, first compound 0.3 µM): 44.6%
- viability, T/C (second compound 3.16 µM, first compound 0.949 µM): 35.3%
- viability, T/C (second compound 3.16 µM, first compound 3 µM): 39.9%
- viability, T/C (second compound 10 µM, first compound 0.00949 µM): 70%
- viability, T/C (second compound 10 µM, first compound 0.03 µM): 61.3%
- viability, T/C (second compound 10 µM, first compound 0.0949 µM): 50.6%
- viability, T/C (second compound 10 µM, first compound 0.3 µM): 45.8%
- viability, T/C (second compound 10 µM, first compound 0.949 µM): 39.2%
- viability, T/C (second compound 10 µM, first compound 3 µM): 39.7%

- IC50 (second compound 0.1 µM): 571 nM
- IC50 (second compound 0.316 µM): 454 nM
- IC50 (second compound 1 µM): 394 nM
- IC50 (second compound 3.16 µM): < 31.6 nM
- IC50 (second compound 10 µM): < 31.6 nM
SMILES: COc1cccc2c1C(=O)c1c(O)c3c(c(O)c1C2=O)CC(O)(C(=O)CO)CC3OC1CC(N)C(O)C(C)O1 (stereo not given) + Cc1cncc(-c2nc(NCCc3c[nH]c4ccccc34)c3ncn(C(C)C)c3n2)c1
- viability, T/C [1]: 76.6%
- viability, T/C [2]: 74.6%
- viability, T/C [3]: 64%
- viability, T/C [4]: 36.8%
- viability, T/C [5]: 5.61%
- viability, T/C [6]: 0.77%
- viability, T/C [7]: 79%
- viability, T/C [8]: 77.8%
- viability, T/C [9]: 58.3%
- viability, T/C [10]: 29.8%
- viability, T/C [11]: 3.48%
- viability, T/C [12]: 0.76%
- viability, T/C [13]: 84.2%
- viability, T/C [14]: 79.9%
- viability, T/C [15]: 53.7%
- viability, T/C [16]: 27.1%
- viability, T/C [17]: 1.11%
- viability, T/C [18]: 0.75%
- viability, T/C [19]: 41.6%
- viability, T/C [20]: 44.3%
- viability, T/C [21]: 39.5%
- viability, T/C [22]: 15.8%
- viability, T/C [23]: 0.78%
- viability, T/C [24]: 0.47%
- viability, T/C [25]: 2.11%
- viability, T/C [26]: 2.97%
- viability, T/C [27]: 4.27%
- viability, T/C [28]: 0.39%
- viability, T/C [29]: 0.31%
- viability, T/C [30]: 0.58%
